Source: patent publication US20210267959A1, “METHODS OF TREATING RENAL DISEASE” (The Regents of the University of California, priority 2018, published 2021)

What was measured:
[1] = system: monoacylglycerol lipase (MGL); details: cited from earlier work
[2] = system: mouse model of chronic kidney disease (CKD) via 5/6 nephrectomy; experiment: JZL184 in mouse 5/6 nephrectomy model of chronic kidney disease; assay type: in vivo, Male C57BL/6J mice; details: CKD mice, JZL184 4 mg/kg, 4 weeks; FIG. 12
Description: (§1) We used a well-known experimental tool, JZL184, which inhibits the enzyme responsible for breakdown of 2-AG, monoacylglycerol lipase (MGL), to determine the effect of increased tissue 2-AG levels on markers of renal function in animal models of chronic kidney disease (CKD). JZL184 was administered intraperitoneally in a well-established rat and mouse model of chronic kidney disease (CKD) (FIG. 8).
(§2) Therefore, we induced CKD in animals via 5/6 nephrectomy (surgical removal of one entire kidney in addition to 2/3 of the contralateral kidney which results in significant renal mass reduction and development of kidney failure over 6-10 weeks) in two separate studies (one set in rats and one set in mice).
We performed a similar experiment in mice. Male C57BL/6J mice underwent sham surgery versus 5/6 nephrectomy to induce CKD and two weeks after surgery were randomized to vehicle versus JZL184 therapy (4 mg/kg). Treated animals received JZL184 (4 mg/kg) for an additional 4 weeks (FIG. 11).

[3] = system: rat model of chronic kidney disease (CKD) via 5/6 nephrectomy; experiment: JZL184 in rat 5/6 nephrectomy model of chronic kidney disease; assay type: in vivo, male Sprague-Dawley rats; details: CKD rats, 4 weeks
Description: as §1, §2
In the rats, male Sprague-Dawley rats underwent 5/6 nephrectomy versus sham surgery and after two weeks were randomized to 4 groups: sham surgery, CKD treated with vehicle, CKD treated with 4 mg/kg JZL184 and CKD treated with 8 mg/kg JZL184 (n=6-8). During and at the end of the study, non-invasive blood pressure measurements were performed using tail-cuff plethysmography. Before sacrifice, a 24-hour urine sample was collected and evaluated for urine protein and creatinine to assess for degree of proteinuria (degree of proteinuria is a marker of glomerular and interstitial kidney damage in advanced CKD). After sacrifice, serum was obtained to assess for renal function. […] This was associated reduced systolic blood pressure and decreased rate of urine protein excretion.

[4] = JZL184 4 or 8 mg/kg intraperitoneal, FIG. 9

O=C(Oc1ccc([N+](=O)[O-])cc1)N1CCC(C(O)(c2ccc3c(c2)OCO3)c2ccc3c(c2)OCO3)CC1 [JZL184, 4-nitrophenyl-4-(dibenzo[d][1,3]dioxol-5-yl(hydroxy)methyl)piperidine-1-carboxylate]
overt symptoms of endocannabinoid activation in the central nervous system ([1]; 4 mg/kg in mice and 4-8 mg/kg in rats, have been shown (prior work)): without causing overt symptoms
brain and kidney levels of 2-AG ([1]; has been shown (prior work)): significantly increase
blood pressure [2]: significant improvement
serum BUN concentration [2]: reduced
urinary protein excretion [2]: decreased
cerebral cortex 2-AG concentration [3, 4]: significant increase
renal 2-AG concentration [3, 4]: significant increase
rate of urine protein excretion ([3]; JZL184 4 or 8 mg/kg, 24-hour urine, FIG. 10): decreased
renal function (serum) ([3]; JZL184 4 or 8 mg/kg, FIG. 10): signal toward improved renal function
systolic blood pressure ([3]; JZL184 4 or 8 mg/kg, tail-cuff plethysmography, FIG. 10): reduced
